Data set [1] in a line: Toxicity / tolerability of the compound. The settings on record: in vivo.
Data set [2] in a line: Metabolism in the body. The settings on record: in vivo.
For data set [3], the system named is healthy subjects and patients suffering from anxiety. Put plainly: Studies of healthy subjects and patients suffering from anxiety. Type of data set: in vivo, human. From the text: This is a novel use for pregabalin which would not be obvious to a medical practitioner of ordinary skill.
This effect will be beneficial in acute mania and will also lead to reducing the risk for onset of a new episode of mania in a predisposed individual. Thus, the prophylactic use of pregabalin for bipolar disorder is also taught.

On to `CC(C)C[C@H](CN)CC(=O)O` [Pregabalin, (S)-3-(aminomethyl)-5-methylhexanoic acid], for which the Tolerability entry in data set [1] is “well-tolerated”. Also, in data set [2], the “Metabolism in the body” value is “not metabolized in the body”. In data set [3] (healthy subjects and patients suffering from anxiety), the “Effects noted in subjects (sedation, calming)” value is “sedative and calming effects”. The Effect on sleep result in data set [3] (human, in vivo) was “enhance sleep”.

These data come from US6359005B1, “Method for the treatment of mania and bipolar disorder” (Warner-Lambert Company, priority 1998, dated 2002).
